Laboratory results: publication PMC4045134, “Discovery of Triterpenoids as Reversible Inhibitors of α/β-hydrolase Domain Containing 12 (ABHD12)” (PLoS ONE, 2014)
Entries after “also recorded” stand apart in the source; their conditions may differ. Read-outs that look alike come from different tables or passages of the source.

Key:
Type in all cases: biochemical
[1] = molecular target: T1, hABHD12 (Homo sapiens, UniProt Q8N2K0); test: Competitive ABPP with TAMRA-FP in hABHD12-HEK293 lysates; conditions: 1 h inhibitor, 5 min probe
T1 construct: expressed in transfected cells; host or cells: HEK293 (transient)
T1 sequence (Q8N2K0 1-398): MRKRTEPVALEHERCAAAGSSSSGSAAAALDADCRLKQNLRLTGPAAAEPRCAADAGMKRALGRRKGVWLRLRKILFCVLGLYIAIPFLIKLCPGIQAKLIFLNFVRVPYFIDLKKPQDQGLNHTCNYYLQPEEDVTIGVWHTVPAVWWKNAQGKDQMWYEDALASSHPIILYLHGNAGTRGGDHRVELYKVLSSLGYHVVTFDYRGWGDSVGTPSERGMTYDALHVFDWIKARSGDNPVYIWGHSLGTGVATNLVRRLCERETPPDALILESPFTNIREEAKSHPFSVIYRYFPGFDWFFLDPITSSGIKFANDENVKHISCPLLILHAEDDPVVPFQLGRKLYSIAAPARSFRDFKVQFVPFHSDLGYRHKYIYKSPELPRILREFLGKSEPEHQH
Procedure: (§1) Competitive ABPP using HEK293 cell lysates and mouse brain membranes was conducted to visualize effects of selected triterpenoids on the binding of the active site serine-targeting fluorescent fluorophosphonate probe TAMRA-FP following outlines of previous protocols, [31]. Briefly, lysates (25 µg) of HEK293 cells with or without (Mock) hABHD12 overexpression or mouse wholebrain membranes (100 µg) were treated for 1 h with DMSO or the inhibitor, after which TAMRA-FP labelling was conducted for 5 min (lysates) or 1 hour (membranes) at RT (final probe concentration 2 µM). The reaction was quenched by addition of gel loading buffer (followed by boiling for 5 min in the case of lysates), after which 10 µg protein (10 µl) was loaded per lane and the proteins were resolved in 10% SDS-PAGE together with standards. TAMRA-FP labeling was visualized (λex 552; λem 575 nm) by a fluorescent reader (FLA-3000 laser fluorescence scanner, Fujifilm, Tokyo, Japan). The intensity of bands was quantified using ImageJ, a freely available image analysis software (http://rsbweb.nih.gov/ij/).

[2] = molecular target: T1, hABHD12; test: Fluorescent glycerol assay of 1-AG hydrolysis in hABHD12-HEK293 lysates; conditions: hABHD12-HEK293 lysates; for Emax: read-out: max inhibition (converted)
Procedure: (§2) Glycerol liberated from 1-AG hydrolysis was determined with a sensitive fluorescent assay using lysates of HEK293 cells with transient overexpression of hABHD12, hABHD6 or hMAGL, essentially as previously described. […] Fluorescence (λex 530; λem 590 nm) was monitored using a Tecan Infinite M200 plate reader (Tecan Group Ltd., Männedorf, Switzerland). Inhibitory activities of selected compounds towards FAAH were determined using membranes of hFAAH overexpressing COS-7 cells, essentially as previously described. The final incubation volume (100 µL) contained 1 µg of protein and the substrate concentration was 20 µM (10 nM of ^3H-anandamide having specific activity of 60 Ci/mmol and concentration of 1 mCi/mL).

[3] = molecular target: T2, ABHD12 (Mus musculus, UniProt Q99LR1); test: Competitive ABPP with TAMRA-FP in mouse brain membrane proteome; conditions: mouse brain membranes, 1 h inhibitor, 1 h probe
T2 construct: the sole serine hydrolase targeted by the triterpenoids in native brain membrane proteome; from tissue; host or cells: mouse whole-brain membranes
T2 sequence (Q99LR1 1-398): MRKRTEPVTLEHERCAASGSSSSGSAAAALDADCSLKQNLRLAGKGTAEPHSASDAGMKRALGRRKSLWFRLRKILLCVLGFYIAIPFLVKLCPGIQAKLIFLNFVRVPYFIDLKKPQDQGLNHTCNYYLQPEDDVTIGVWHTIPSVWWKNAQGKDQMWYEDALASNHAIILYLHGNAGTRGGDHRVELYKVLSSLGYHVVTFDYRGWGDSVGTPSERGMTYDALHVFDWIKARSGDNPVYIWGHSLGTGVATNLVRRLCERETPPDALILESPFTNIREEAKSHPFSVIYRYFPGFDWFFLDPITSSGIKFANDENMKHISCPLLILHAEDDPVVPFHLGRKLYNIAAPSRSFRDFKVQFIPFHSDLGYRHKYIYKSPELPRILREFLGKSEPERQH
Procedure: as §1
(§3) For ABPP experiments (Figure 6C) and cannabinoid receptor activity assays (Table S2), membranes prepared from brain tissue of 4-week-old male rodents were used. The animals were obtained from the National Laboratory Animal Centre, University of Eastern Finland. Approval for the harvesting of animal tissue was obtained from the local welfare officer of the University of Eastern Finland.

[4] = molecular target: T3, hABHD6 (Homo sapiens, UniProt Q9BV23); test: Fluorescent glycerol assay in hABHD6-HEK293 lysates; conditions: 10 µM; NI = no inhibition at 10 µM; read-out: hABHD6 Remaining activity % control ± s.e.m (n=3)
T3 construct: expressed in transfected cells; host or cells: HEK293 (transient)
T3 sequence (Q9BV23 1-337): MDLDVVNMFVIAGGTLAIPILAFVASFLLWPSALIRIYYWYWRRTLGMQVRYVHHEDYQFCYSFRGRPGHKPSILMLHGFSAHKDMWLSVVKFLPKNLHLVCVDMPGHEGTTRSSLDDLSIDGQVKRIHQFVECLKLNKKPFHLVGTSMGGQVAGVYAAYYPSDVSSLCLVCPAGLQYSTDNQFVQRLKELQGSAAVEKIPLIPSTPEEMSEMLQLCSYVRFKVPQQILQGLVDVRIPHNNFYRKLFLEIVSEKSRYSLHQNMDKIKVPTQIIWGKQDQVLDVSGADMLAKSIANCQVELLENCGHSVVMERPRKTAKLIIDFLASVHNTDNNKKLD
Procedure: as §2

[5] = molecular target: T4, hFAAH (Homo sapiens, UniProt O00519); test: FAAH activity, membranes of hFAAH overexpressing COS-7 cells, 3H-anandamide; conditions: read-out: hFAAH Remaining activity % control (mean (range)), n=2
T4 construct: expressed in transfected cells; host or cells: COS-7
T4 sequence (O00519 1-579): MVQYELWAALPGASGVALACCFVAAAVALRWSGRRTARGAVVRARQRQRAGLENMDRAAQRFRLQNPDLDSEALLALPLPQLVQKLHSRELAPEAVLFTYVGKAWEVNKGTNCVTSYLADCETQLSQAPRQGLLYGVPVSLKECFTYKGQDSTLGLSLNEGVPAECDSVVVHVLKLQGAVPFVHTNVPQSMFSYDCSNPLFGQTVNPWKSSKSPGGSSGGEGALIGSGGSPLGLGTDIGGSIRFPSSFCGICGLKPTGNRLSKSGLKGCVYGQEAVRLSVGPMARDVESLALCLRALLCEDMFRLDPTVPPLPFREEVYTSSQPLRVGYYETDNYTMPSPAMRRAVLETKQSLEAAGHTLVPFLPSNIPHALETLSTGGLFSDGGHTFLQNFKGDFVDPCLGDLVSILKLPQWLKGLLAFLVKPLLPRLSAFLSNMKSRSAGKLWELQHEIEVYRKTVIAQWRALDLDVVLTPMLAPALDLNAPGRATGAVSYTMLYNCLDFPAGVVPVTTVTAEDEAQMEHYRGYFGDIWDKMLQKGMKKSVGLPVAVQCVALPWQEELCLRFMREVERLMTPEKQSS
Procedure: as §2

[6] = test system: metabolic serine hydrolases; test: Competitive ABPP, other serine hydrolases of mouse brain membrane proteome
Procedure: as §1
For ABPP experiments (Figure 6C) and cannabinoid receptor activity assays (Table S2), membranes prepared from brain tissue of 4-week-old male rodents were used. The animals were obtained from the National Laboratory Animal Centre, University of Eastern Finland. […]

[7] = molecular target: T5, hCB2R (Homo sapiens, UniProt P34972); test: [35S]GTPγS binding, CB2R agonist activity, hCB2R-CHO cell membranes; conditions: 10 µM
T5 construct: expressed in transfected cells; host or cells: CHO
T5 sequence (P34972 whole entry): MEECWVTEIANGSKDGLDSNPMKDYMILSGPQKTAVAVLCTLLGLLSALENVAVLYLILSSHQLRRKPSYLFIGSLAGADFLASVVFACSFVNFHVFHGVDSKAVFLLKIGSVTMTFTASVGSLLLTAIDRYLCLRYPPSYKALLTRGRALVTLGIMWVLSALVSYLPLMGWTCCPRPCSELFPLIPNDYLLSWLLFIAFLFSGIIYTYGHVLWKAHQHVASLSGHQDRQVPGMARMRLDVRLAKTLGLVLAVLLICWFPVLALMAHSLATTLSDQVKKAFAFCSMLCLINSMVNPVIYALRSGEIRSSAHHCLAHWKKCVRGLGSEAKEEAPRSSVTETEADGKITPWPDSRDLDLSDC

[8] = molecular target: T6, CB1R (Rattus norvegicus, UniProt P20272); test: [35S]GTPγS binding, CB1R antagonist activity, rat cerebellar membranes; conditions: 10 µM
T6 construct: membranes prepared from brain tissue of 4-week-old male rodents were used; from tissue; host or cells: rat cerebellar membranes
T6 sequence (P20272 whole entry): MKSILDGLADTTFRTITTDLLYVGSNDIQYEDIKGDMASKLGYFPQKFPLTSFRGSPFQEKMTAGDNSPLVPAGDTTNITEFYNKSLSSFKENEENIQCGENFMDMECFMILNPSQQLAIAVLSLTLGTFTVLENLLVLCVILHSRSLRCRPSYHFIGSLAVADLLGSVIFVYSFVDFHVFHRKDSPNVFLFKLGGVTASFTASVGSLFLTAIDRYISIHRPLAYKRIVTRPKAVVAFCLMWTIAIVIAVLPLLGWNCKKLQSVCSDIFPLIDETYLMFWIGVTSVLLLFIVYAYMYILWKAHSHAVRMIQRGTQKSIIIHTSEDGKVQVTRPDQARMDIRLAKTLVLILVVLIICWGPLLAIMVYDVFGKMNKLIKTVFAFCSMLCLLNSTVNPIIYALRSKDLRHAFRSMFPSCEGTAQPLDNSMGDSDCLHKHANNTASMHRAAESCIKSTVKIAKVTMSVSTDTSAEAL
Procedure: (§4) The CB1 and CB2 receptor activity of the selected compounds (10 µM) were measured using the GTPγS binding assay according to the previously described methods, [33].
as §3

[9] = molecular target: T7, hMAGL (Homo sapiens, UniProt Q99685); test: Fluorescent glycerol assay in hMAGL-HEK293 lysates; conditions: 10 µM; read-out: hMAGL Remaining activity % control ± s.e.m (n=3)
T7 construct: expressed in transfected cells; host or cells: HEK293 (transient)
T7 sequence (Q99685 1-303): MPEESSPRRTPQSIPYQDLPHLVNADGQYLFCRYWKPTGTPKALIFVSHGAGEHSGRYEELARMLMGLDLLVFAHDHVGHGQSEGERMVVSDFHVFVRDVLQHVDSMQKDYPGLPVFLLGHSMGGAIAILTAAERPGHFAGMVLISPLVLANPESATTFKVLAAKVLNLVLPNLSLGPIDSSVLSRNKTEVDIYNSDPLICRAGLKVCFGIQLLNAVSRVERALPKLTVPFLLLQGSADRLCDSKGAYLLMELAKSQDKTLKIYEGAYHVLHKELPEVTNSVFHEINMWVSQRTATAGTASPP
Procedure: as §2

[10] = molecular target: T6, CB1R; test: [35S]GTPγS binding, CB1R agonist activity, rat cerebellar membranes; conditions: 10 µM
Procedure: as §4, §3

[11] = molecular target: T1, hABHD12; test: Reversibility testing, 40-fold dilution of enzyme-inhibitor complex; conditions: time points 10, 20, 30, 60 and 90 min
Procedure: Reversibility testing was carried out as previously described. Briefly, DMSO/inhibitor (0.5 µl) was incubated together with hABHD12-HEK293 lysate (4.5 µl, 0.3 µg protein/well) in TEMN-BSA buffer for 30 min. After this, a 40-fold dilution of enzyme-inhibitor complex was brought about by addition of the substrate [1-AG, 12.5 µM final concentration, containing additionally 1% EtOH (v/v)] in 195 µl of glycerol assay mix and fluorescence was kinetically monitored at 10 min intervals for 90 min at RT.

[12] = three independent experiments, read-out: -logIC50±s.e.m. (converted)

Compound | TAMRA-FP probe labeling of hABHD12 [1] | remaining activity at 10 µM ([2]; 10 µM, NI = no inhibition, read-out: Remaining activity at 10 µM % ± s.e.m.) [%] | TAMRA-FP probe labeling of ABHD12 [3] | remaining activity at 10 µM [4] [%] | remaining activity at 10 µM [5] [%] | additional targets among the metabolic serine hydrolases [6] | IC50 [2, 12] [nM] | Emax [2] [%] | CB2R agonist activity [35S]GTPγS binding % Basal (Mean (range), n=2) [7] | CB1R antagonist activity [35S]GTPγS binding % HU210-evoked response (Mean (range), n=2) [8] | remaining activity at 10 µM [9] [%] | CB1R agonist activity [35S]GTPγS binding % Basal (Mean (range), n=2) [10] | IC50 ([2]; read-out: IC50) [nM] | time-dependency of inhibitor potency (IC50) after 40-fold dilution [11]
C=C(C)[C@@H]1CC[C@]2(C(=O)N3CCCCC3)CC[C@]3(C)[C@H](CC[C@@H]4[C@@]5(C)CC[C@H](O)C(C)(C)[C@@H]5CC[C@]43C)[C@@H]12 [Compound 22] | lacked activity; also recorded: ineffective | 94 ± 0.5 | ineffective, even at 200 µM concentration | – | – | – | – | – | – | – | – | – | – | –
CC(C)[C@@H]1CC[C@]2(C(=O)O)CC[C@]3(C)[C@H](CC[C@@H]4[C@@]5(C)CCC(=O)C(C)(C)[C@@H]5CC[C@]43C)[C@@H]12 [Compound 23] | dose-dependently inhibited probe labeling of hABHD12 | – | selectively inhibited probe labeling of ABHD12; also recorded: dose-dependently inhibit TAMRA-FP labeling of ABHD12 already at 20 µM | 83 ± 2.8 | 98 | no additional targets are evident | 1620 | 89 | 98 (95-100) % Basal | 92 (90-95) % HU210-evoked response | 77.5 ± 3.1 | 89 (86-92) % Basal | – | –
C=C(C)C1CCC2(C(=O)O)CCC3(C)C(CCC4C5(C)Cc6c([nH]c7ccccc67)C(C)(C)C5CCC43C)C12 (stereo not drawn) [Compound 33] | – | – | – | 81 ± 4.3 | 90 | – | 933 | 65 | 102 (90-114) % Basal | 97 (96-98) % HU210-evoked response | 74.8 ± 4.6 | 95 (94-96) % Basal | 900 | time-dependent drop of inhibitor potency
C=C(C)[C@@H]1CC[C@]2(C(=O)O)CC[C@]3(C)[C@H](CC[C@@H]4[C@@]5(C)Cc6c([nH]c7ccc(OC)cc67)C(C)(C)[C@@H]5CC[C@]43C)[C@@H]12 [Compound 34] | – | – | – | – | – | – | 1620 | 100 | – | – | – | – | – | time-dependent drop of inhibitor potency
CCCCCCCCCCC[C@@H](C[C@@H]1OC(=O)[C@H]1CCCCCC)OC(=O)[C@H](CC(C)C)NC=O [THL, tetrahydrolipstatin, reference compound] | fully prevented | – | prevented TAMRA-FP labeling | – | – | – | – | – | – | – | – | – | – | remained constant; also recorded: does not change in a statistically significant manner
